Reference: patent US9937178B2, “Methods of identifying and using MDM2 inhibitors” (DUKE UNIVERSITY, priority 2011, dated 2018)

Assays:
AU565-derived tumor = experiment: AU565 mammary fat pad xenograft; type: in vivo, mouse; conditions: 100 mg/kg each drug, twice daily by oral gavage
Method: (§1) Six week-old female nude mice were purchased from NCI Frederic. Xenograft tumors were produced by injection into the mammary fat pad with cells (10×10^6). Tumor volumes were calculated every 3-4 days based on caliper measurements of the short (a) and long (b) tumor diameters (volume=a2b/2). […] Mice were dosed orally with vehicle alone, lapatinib (100 mg/kg), Nutlin-3 (100 mg/kg), or combination of both twice daily by gavage.

rBT474 xenografts = experiment: rBT474 mammary fat pad xenograft; conditions: 100 mg/kg each drug, twice daily by oral gavage
Method: (§2) Forty-eight hours after siRNA transfection, cells were treated with 1 μM lapatinib for 48 hours, and cells were harvested and subjected to Annexin V staining. The percentage of Annexin V-positive cells was analyzed by FACS. Results are expressed as a mean percentage±SEM and analyzed by t-test (*P<0.05). […] The oral administration of lapatinib (100 mg/kg, twice daily by oral gavage) began when the average tumor volume surpassed 300 mm^3. Results are expressed as a mean percentage±SEM. […] After 36 hours, cells were harvested and immunoblotted. […] BT474 and rBT474 cells were injected into the mammary fad pad of each mouse. When tumors developed to a size of 200 mm^3, the mice were randomly assigned to receive vehicle, lapatinib (100 mg/kg), Nutlin-3 (100 mg/kg), or Lapatinib+Nutlin-3 and treated twice daily by oral gavage. Results are expressed as a mean percentage±SEM. […] Percentage of apoptotic cell death was measured by FACS analysis using Annexin V. Results are expressed as a mean percentage±SEM of Annexin V-positive cells (*P<0.05 by t-test).
(§3) Six week-old female nude mice were purchased from NCI Frederic. Xenograft tumors were produced by injection into the mammary fat pad with cells (10×10^6). Tumor volumes were calculated every 3-4 days based on caliper measurements of the short (a) and long (b) tumor diameters (volume=a2b/2). […]

BT474 xenografts = experiment: BT474 mammary fat pad xenograft; conditions: 100 mg/kg each drug, twice daily by oral gavage
Method: as §2, §3

rAU565-derived tumor = experiment: rAU565 mammary fat pad xenograft; conditions: 100 mg/kg each drug, twice daily by oral gavage
Method: as §1

Huwe1 = experiment: Immunoblot of Huwe1 protein levels and stability; type: cell-based; conditions: rSKBR3 cells, 1 μM lapatinib, 10 μM Nutlin-3a, 36 hours, z-VAD
Method: FIG. 13 is a set of immunoblots showing MDM2-mediated ubiquitylation and degradation of Huwe1 in lapatinib-resistant cells. […] Cells treated with 1 μM lapatinib were harvested at various time points and immunoblotted. […] FIG. 13B is an immunoblot for HA and actin. BT474 and rBT474 cells were transiently transfected with HA-tagged Huwe1 and subsequently treated with 50 μg/ml cycloheximide (CHX) and 1 μM lapatinib. FIG. 13C is an immunoblot for Huwe1 and MDM2. Immunoprecipitation was carried out using H1299 cell lysates and anti-Huwe1 antibody (or control IgG). FIG. 13D is an immunoblot for HA or MDM2 after immunoprecipitation with HA. BT474 cells were transfected with HA-tagged Huwe1 encoding the full-length protein, residues 1-2474, or residues 2473-4374. […] H1299 cells were transfected with empty vector, HA-Huwe1^W1202A, or HA-Huwe1 wild type. FIG. 13F is an immunoblot for Huwe1 and Actin. BT474 cells were transfected with increasing amounts of MDM2 and harvested after 48 hours. FIG. 13G is an immunoblot for Huwe1, MDM2, and actin. […] FIG. 13H is an immunoblot for Huwe1. Ubiquitylation of Huwe1 was reconstituted in vitro by incubating recombinant Huwe1 protein (Huwe1^1-2474) with E1, UbcH5 (E2), ubiquitin (Ub), and recombinant MDM2 protein in reaction buffer at 37° C. for 3 hours. […] Twenty-four hours later, the cells were replated and further transfected with HA-tagged Huwe1 (wild type). Forty-eight hours after siRNA transfection, the cells were treated with 1 μM lapatinib. After 24 hours of lapatinib treatment, 50 μg/ml cycloheximide (CHX) was added to the culture medium and cells were harvested at various time points for immunoblotting.

PP5 = experiment: Immunoblot of PP5 protein levels; type: cell-based; conditions: rSKBR3 cells, 1 μM lapatinib, 10 μM Nutlin-3a, 36 hours, z-VAD
Method: FIG. 7 is a set of photographs and graphs showing PP5 stability and post-cytochrome c protection in lapatinib-resistant cells. FIG. 7A is an immunoblot for caspase-9 (cleaved and non-cleaved) and cleaved caspase-3 (C9 and C3, respectively) showing rBT474 cells cultured in the absence or presence of 1 μM lapatinib for one week, as compared to BT474 cells which were maintained without lapatinib. Cytosolic lysates prepared from BT474 or rBT474 were incubated with 1 mM dATP and various amounts of cytochrome c (CC). FIG. 7B is a set of graphs showing Caspase 3 activity in the indicated cell lysates over time. Caspase-3 activity was assayed by measuring cleavage of DEVD-pNA following incubation of the cell lysates with 1 mM dATP and various concentrations of cytochrome c. FIG. 7C is an autoradiograph of ^32P and an immunoblot showing the percentage of the protein phosphorylated. In the presence of [γ-^32P]ATP, recombinant His-tagged HSP90β proteins (wild type and the indicated mutants) on nickel beads were incubated with the HSP90β-targeted kinase casein kinase 2. FIG. 7D is an autoradiograph and corresponding immunoblot showing BT474 or rBT474 cells after being cultured in the absence or presence of 1 μM lapatinib for 24 hours in the presence of z-VAD. Recombinant His-tagged HSP90β protein on nickel beads was incubated with the cell lysates in the presence of [γ-^32P]ATP. FIG. 7E is an immunoblot for phospho-Hsp90β (Ser226) and total HSP90β at various time points. […] FIG. 7F is a set of graphs showing FACS analysis for the phosphorylation status of Hsp90β (Ser255). BT474 or rBT474 cells cultured in the presence of 1 μM lapatinib for 24 hours were fixed with formaldehyde and incubated with phospho-Hsp90β (Ser255) antibody followed by an Alexa488-conjugated secondary antibody. FIG. 7G is an immunoblot for PP5 and actin at the indicated time points. BT474 and rBT474 (left) or AU565 and rAU565 cells (right) were treated with 1 μM lapatinib. FIG. 7H is an autoradiograph of immunoprecipitated FLAG-PP5 using an anti-FLAG agarose. […]

CAS = experiment: Immunoblot of CAS protein levels; type: cell-based; conditions: rSKBR3 cells, 1 μM lapatinib, 10 μM Nutlin-3a, 36 hours, z-VAD
Method: FIG. 11 is a set of photographs of immunoblots showing CAS degradation in lapatinib-resistant cells. FIG. 11A is an immunoblot for CAS and Actin. BT474 and rBT474 (left) or AU565 and rAU565 cells (right) cultured in the absence of lapatinib for one week were treated with 1 μM lapatinib and the cells were harvested at various time points. FIG. 11B is an immmunoblot for CAS and Actin. rBT474 cells were maintained in the presence of […] lapatinib and the cells were harvested at various time points following removal of lapatinib. FIG. 11C is an immunoblot for FLAG and actin. BT474 and rBT474 cells were transiently transfected with FLAG-tagged CAS and subsequently treated with 50 μg/ml cycloheximide (CHX) and 1 μM lapatinib and the cells were harvested at various time points. FIG. 11D is an immunoblot using HA to analyze ubiquitination of CAS. BT474 and rBT474 (left) or SKBR3 and rSKBR3 cells (right) were co-transfected with FLAG-CAS and HA-Ub. […] After treatment with 10 μM MG 132 for 8 hours, cells were harvested and FLAG-CAS was retrieved by immunoprecipitation. FIG. 11E is an immunoblot for FLAG-tagged proteins retrieved by immunoprecipitation and association with MDM2. H1299 cells were transfected with empty vector, FLAG-CAS^W127A, or FLAG-CAS wild type. FIG. 11F is an immunoblot for CAs after immunoprecipitation for FLAG. H1299 cells were transfected with empty vector, FLAG-CAS^W127A, or FLAG-CAS wild type. Cells were treated with 10 μM MG132 for 3 hours. […] SKBR3 cells were transfected with increasing amounts of MDM2. After 48 hours, cells were harvested and immunoblotted (*non-specific band). FIG. 11H is an immunoblot for CAS. […] FIG. 11I is an immunoblot for MDM2 or CAs after immunoprecipitation with FLAG. BT474 and rBT474 cells were transfected with FLAG-CAS. […] After treatment with 10 μM MG132 for 5 hours, FLAG-CAS was retrieved by immunoprecipitation and association of endogenous MDM2 was analyzed by immunoblotting.

Mcl-1 [1] = experiment: Immunoblot of Mcl-1 protein levels; type: cell-based; conditions: rSKBR3 cells, 1 μM lapatinib, 10 μM Nutlin-3a, 36 hours, z-VAD
Method: FIG. 3 is a set of photographs showing that Mcl-1 is stabilized in lapatinib-resistant cells. […] FIG. 3B is a set of immunoblots showing the levels of HER2 and phospho-HER2 in untreated cells and cells treated with lapatinib. Cells were treated with or without lapatinib (1 μM) for 24 hours in the presence of the caspase inhibitor z-VAD (50 μM). The cells were harvested and cell lysates were immunoblotted using antibodies against phospho-HER2 (Y877) and total HER2. FIG. 3C is an immunoblot for phospho-AKT (T308) and total AKT. BT474 and rBT474 cells were treated with 1 μM lapatinib in the presence of 50 μM z-VAD. At the indicated time points, the cells were harvested and immunoblotted. FIG. 3D is an immunoblot for phospho-Erl1/2(T202/Y204) and total Erk1/2. BT474 and rBT474 cells were treated with 1 μM lapatinib in the presence of 50 μM z-VAD. At the indicated time points, the cells were harvested and immunoblotted. FIG. 3E is an immunoblot for Mcl-1, Bim, and Actin. BT474 and rBT474 cells (left) or SKBR3 and rSKBR3 cells (right) were treated with 1 μM lapatinib. The cells were harvested at the indicated time points and immunoblotted. FIG. 3F is an autoradiograph showing the ^35[S] radioactivity in lysates containing ^35[S]-Mcl-1 at the indicated time points. ^35[S]-labeled Mcl-1 protein was incubated in cell-free lysates prepared from BT474 and rBT474 cells (top) or SKBR3 and rSKBR3 cells (bottom). FIG. 3G is an autograph showing the ^35[S]-labeled Mcl-1 to monitor Mcl-1 stability over time. The ^35[S]-labeled Mcl-1 was incubated in lysates prepared from rBT474 cells treated with or without 1 μM lapatinib. FIG. 3H is an immunoblot for HA. SKBR3 or rSKBR3 cells were co-transfected with FLAG-Mcl-1 and HA-Ubiquitin (Ub). […] Cells were harvested after treatment with 10 μM MG 132 for 4 hours. FLAG-Mcl-1 was retrieved by immunoprecipitation using anti-flag agarose, and Mcl-1 ubiquitylation was analyzed by immunoblotting for HA (*non-specific band, **IgG heavy chain).

Mcl-1 [2] = experiment: 35[S]-Mcl-1 degradation in cell-free lysates; type: cell-based; conditions: resistant cell lysates, 5 μM ubiquitin aldehyde
Method: FIG. 3 is a set of photographs showing that Mcl-1 is stabilized in lapatinib-resistant cells. […] FIG. 3B is a set of immunoblots showing the levels of HER2 and phospho-HER2 in untreated cells and cells treated with lapatinib. Cells were treated with or without lapatinib (1 μM) for 24 hours in the presence of the caspase inhibitor z-VAD (50 μM). The cells were harvested and cell lysates were immunoblotted using antibodies against phospho-HER2 (Y877) and total HER2. FIG. 3C is an immunoblot for phospho-AKT (T308) and total AKT. BT474 and rBT474 cells were treated with 1 μM lapatinib in the presence of 50 μM z-VAD. At the indicated time points, the cells were harvested and immunoblotted. FIG. 3D is an immunoblot for phospho-Erl1/2(T202/Y204) and total Erk1/2. BT474 and rBT474 cells were treated with 1 μM lapatinib in the presence of 50 μM z-VAD. At the indicated time points, the cells were harvested and immunoblotted. […] FIG. 3F is an autoradiograph showing the ^35[S] radioactivity in lysates containing ^35[S]-Mcl-1 at the indicated time points. ^35[S]-labeled Mcl-1 protein was incubated in cell-free lysates prepared from BT474 and rBT474 cells (top) or SKBR3 and rSKBR3 cells (bottom). […] FLAG-Mcl-1 was retrieved by immunoprecipitation using anti-flag agarose, and Mcl-1 ubiquitylation was analyzed by immunoblotting for HA (*non-specific band, **IgG heavy chain). […]

COc1ccc(C2=N[C@@H](c3ccc(Cl)cc3)[C@@H](c3ccc(Cl)cc3)N2C(=O)N2CCNC(=O)C2)c(OC(C)C)c1 [Nutlin-3]
AU565-derived tumor growth (AU565-derived tumor): moderate tumor inhibitory effects | rBT474-derived tumor growth (rBT474 xenografts): Neither lapatinib nor Nutlin-3 inhibited | growth of BT474-derived tumors (BT474 xenografts): only modestly inhibited | rAU565-derived tumor growth (rAU565-derived tumor): moderate tumor inhibitory effects

COc1ccc(C2=N[C@@H](c3ccc(Cl)cc3)[C@@H](c3ccc(Cl)cc3)N2C(=O)N2CCNC(=O)C2)c(OC(C)C)c1 [Nutlin-3a]
lapatinib-induced degradation of Huwe1 (Huwe1): prevented | lapatinib-induced upregulation of PP5 (PP5): suppressed | CAS degradation (CAS): significantly inhibited | lapatinib-induced upregulation of Mcl-1 (Mcl-1 [1]): suppressed

ubiquitin aldehyde
degradation of 35[S]-Mcl-1 (Mcl-1 [2]): did not prevent the failure to degrade
